From patent US20100256133A1, “NOVEL COMPOUNDS HAVING INDAZOLE FRAMEWORKS, METHODS FOR PREPARING THE SAME AND PHARMACEUTICAL COMPOSITION COMPRISING THE SAME” (priority 2007, published 2010)

Target: T1, GSK3β (Homo sapiens, UniProt P49841)
T1 construct: made in house; host or cells: Sf21 insect cells
Assay: Assay for inhibitory activity against GSK3β (Kinase-Glo luminescence)
Assay type: biochemical
Conditions: 750 nM ATP, 4 μM GSY-2 phosphopeptide; for inhibition at 25 µM: compound at 25 μM; for inhibition at 25 µM / inhibition at 50 µM: vs control without compound; for inhibition at 50 µM: compound at 50 μM
Protocol: The compounds of the present invention were assayed for inhibitory activity against GSK3β. The GSK-3 is implicated in the incidence of various diseases including diabetes, Alzheimer's disease, CNS disorders and hypertrophic cardiomyopathy.
GSK3β was purified from Sf21 cells using a procedure described in the literature, R. Dajani et. al. (Cell 2001, […], 721-732). GSK3β activity was examined at room temperature in 50 μl of 40 mM Tris-HCl, pH7.4, 10 mM MgCl2, 1 mM DTT, 0.2 mM EDTA, 200 μM NaVO3, 10 mM β-glyceralphosphate, 1 mM EGTA buffer containing 750 nM ATP and 4 μM GSY-2 phosphopeptide (substrate). After incubation at room temperature for […], Kinase-Glo reagent (Promega) was added to reaction mixtures of Preparation Examples 1-1 to 1-12, 1-80 to 1-90, and 1-92. The well plates were incubated at room temperature for […] to stabilize luminescent signals. The luminescent intensity, reflecting the quantity of ATP, was recorded using a counter (Wallac Victor 1420 multilabel counter) and used to determine % inhibition of GSK3β as compared to ATP level in the control to which none of the compounds of the present invention were added.

T1 sequence (P49841 whole entry): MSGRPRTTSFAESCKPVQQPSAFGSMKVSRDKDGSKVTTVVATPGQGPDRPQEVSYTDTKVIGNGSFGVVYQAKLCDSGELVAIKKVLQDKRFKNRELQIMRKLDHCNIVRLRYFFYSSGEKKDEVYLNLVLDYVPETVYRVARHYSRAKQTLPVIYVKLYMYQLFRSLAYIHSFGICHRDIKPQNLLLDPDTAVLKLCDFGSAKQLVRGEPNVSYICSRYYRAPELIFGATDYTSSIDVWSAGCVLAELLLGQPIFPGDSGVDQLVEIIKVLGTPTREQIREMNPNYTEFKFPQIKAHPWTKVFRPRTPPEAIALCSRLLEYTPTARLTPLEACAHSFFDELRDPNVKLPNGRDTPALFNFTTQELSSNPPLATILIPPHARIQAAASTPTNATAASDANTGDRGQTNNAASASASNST

Compound | IC50 [µM] | inhibition at 25 µM [%] | inhibition at 50 µM [%]
Cc1cccc2c(-c3nc4[nH]nc(NC(=O)C5CC5)c4cc3F)cnn12 [Example 1-3] | – | 11.6 | 53.1
Cc1cccc2c(-c3nc4[nH]nc(NC(=O)C5CCCC5)c4cc3F)cnn12 [Example 1-4] | – | 63.8 | 82.1
Cc1cccc2c(-c3nc4[nH]nc(NC(=O)Cc5ccc(F)cc5)c4cc3F)cnn12 [Example 1-6] | – | 48.3 | 70.8
Cc1cccc2c(-c3nc4[nH]nc(NC(=O)c5ccc(N(C)C)cc5)c4cc3F)cnn12 [Example 1-7] | 13.3 | 71.2 | 92.3
COc1ccn2ncc(-c3nc4[nH]nc(NC(=O)Cc5ccc(F)cc5)c4cc3F)c2c1 [Example 1-9] | 20 | 58.2 | 94.6
COc1ccn2ncc(-c3nc4[nH]nc(N)c4cc3F)c2c1 [Example 1-12] | – | 87.7 | –
CC(=O)OCCn1nc(NC(=O)c2ccc(F)cc2)c2cc(F)c(-c3cnn4c(C)cccc34)nc21 [Example 1-81] | – | 81.9 | 97.5
CC(=O)OCCn1nc(NC(=O)C2CCCC2)c2cc(F)c(-c3cnn4ccccc34)nc21 [Example 1-85] | 34.9 | 68.6 | 90.1
Nc1nn(CCO)c2nc(-c3cnn4ccccc34)c(F)cc12 [Example 1-87] | – | 26.7 | –
CC(=O)OCCn1nc(NC(=O)c2ccccc2)c2cc(F)c(-c3cnn4ccccc34)nc21 [Example 1-88] | – | 23 | –
COc1ccn2ncc(-c3nc4c(cc3F)c(NC(=O)c3ccccc3)nn4CCO)c2c1 [Example 1-92] | – | 117 | –

Second part, the molecule after the results:

IC50 [µM] | inhibition at 25 µM [%] | inhibition at 50 µM [%] | Compound
10.2 | 80.8 | 96.3 | O=C(Nc1n[nH]c2nc(-c3cnn4ccccc34)c(F)cc12)C1CC1 [Example 1-1]
14.9 | 76.9 | 95.3 | O=C(Nc1n[nH]c2nc(-c3cnn4ccccc34)c(F)cc12)C1CCCC1 [Example 1-2]
– | 35.1 | 78 | Cc1cccc2c(-c3nc4[nH]nc(NC(=O)c5cccc(C#N)c5)c4cc3F)cnn12 [Example 1-5]
– | 37.7 | 61.6 | COc1ccn2ncc(-c3nc4[nH]nc(NC(=O)C5CC5)c4cc3F)c2c1 [Example 1-8]
14.4 | 77.4 | 90.7 | O=C(Cc1ccc(F)cc1)Nc1n[nH]c2nc(-c3cnn4ccccc34)c(F)cc12 [Example 1-10]
– | 30 | – | Nc1n[nH]c2nc(-c3cnn4ccccc34)c(F)cc12 [Example 1-11]
– | 19.7 | 37.8 | CC(=O)OCCn1nc(N)c2cc(F)c(-c3cnn4c(C)cccc34)nc21 [Example 1-80]
– | 64.5 | 80.4 | CC(=O)OCCn1nc(N)c2cc(F)c(-c3cnn4ccccc34)nc21 [Example 1-82]
– | 81.2 | 87.2 | COc1ccn2ncc(-c3nc4c(cc3F)c(N)nn4CCOC(C)=O)c2c1 [Example 1-83]
– | 24.4 | 49.5 | CC(=O)OCCn1nc(NC(=O)C2CC2)c2cc(F)c(-c3cnn4ccccc34)nc21 [Example 1-84]
– | 47.9 | 86.5 | O=C(Cc1ccc(F)cc1)Nc1nn(CCO)c2nc(-c3cnn4ccccc34)c(F)cc12 [Example 1-86]
– | 1.5 | – | O=C(Nc1nn(CCO)c2nc(-c3cnn4ccccc34)c(F)cc12)c1ccccc1 [Example 1-89]
– | 116 | – | COc1ccn2ncc(-c3nc4c(cc3F)c(N)nn4CCO)c2c1 [Example 1-90]
– | 51.6 | 88.6 | Cc1cccc2c(-c3nc4c(cc3F)c(NC(=O)c3ccc(F)cc3)nn4C(=O)c3ccc(F)cc3)cnn12 [Example 1-93]
– | 41.7 | 87.2 | O=C(Nc1nn(C(=O)C2CCCC2)c2nc(-c3cnn4ccccc34)c(F)cc12)C1CCCC1 [Example 1-94]
– | 53.2 | 78.9 | CC(=O)OCCn1nc(NC(=O)Cc2ccc(F)cc2)c2cc(F)c(-c3cnn4ccccc34)nc21 [Example 1-95]
